These results are taken from patent US10870618B2, “Histone deacetylase inhibitors and uses thereof” (MUSC FOUNDATION FOR RESEARCH DEVELOPMENT, priority 2016, dated 2020).

Data set [1] has as its system TA97a and TA100 S. typhimurium. Kind of data set: mini-Ames test. The note with it: 96-well format.
From the text: Test were ran with TA97a (shown) and TA100 S. typhimurium.
Tests were run with TA97a (shown) and TA100 S. typhimurium.
The target in the next data set is HDAC1 (Homo sapiens (Human), UniProt Q13547). Kind of data set: Recombinant HDAC inhibition assay (HDAC1). Type of data set: biochemical. On the procedure:
(§1) Recombinant HDACs 1, 2, and 3 (BPS Biosciences) were diluted to a concentration of 1 nM in HDAC buffer. 10 uL of this solution was added in 96-well format to black U-bottom plates. 10 uL of serially diluted inhibitor was added and a 2 hour pre incubation occurred at room temperature. 50 μM (final) of Acetylated Lysine-Aminomethyl coumarin-BOC in HDAC buffer solution was added and a second 2 hour incubation occurred at room temperature. 5 mg/mL trypsin, 1 μM trichostatin A solution in HDAC buffer was added to quench the reaction. Fluorescence was read at 360 (ex.)/460 (em.) using a Tecan M200 Pro. Data were normalized to control wells containing no inhibitor. IC50's were determined using GraphPad Prism's built in “log(inhibitor) vs. normalized response—Variable slope” function.

Another data set has as its target HDAC2 (Homo sapiens (Human), UniProt Q92769). The experiment in a line: Recombinant HDAC inhibition assay (HDAC2). Type of data set: biochemical. Here is the method:
as §1

The target of another data set is HDAC3 (Homo sapiens (Human), UniProt O15379). The experiment in a line: Recombinant HDAC inhibition assay (HDAC3). Type of data set: biochemical.
The next data set has as its system Raw264.7. Kind of data set: HMGB-1 secretion by macrophages. The note with it: LPS plus ATP challenge. In kind it is cell-based.
Another data set concerns HEK293 Lysate. The experiment in a line: Hek293 lysate inhibition assay. Type of data set: biochemical.
Data set [2] in a line: In vivo PK, plasma concentration via LC-MS/MS. On the set-up: species or system mice. On the procedure: The PK parameters were analyzed. The area under the plasma concentration versus time curve (AUC) is calculated using the linear trapezoidal method. The PK data were fitted to obtain PK parameters using the non-compartmental method.
LP-411 in vivo PK. a. Semi-log PK profiles for […] at 20 mg/kg (n=3) determined through a 24 hr period. b.

For the next data set, the system named is AML cell lines. The experiment in a line: AML / leukemia cell toxicity. In kind it is cell-based. Here is the method: MV4-11 cells were purchased from ATCC. The cells were grown according to ATCC protocol in Iscove's Modified Deulbecco's Medium with 10% Fetal Bovine Serum. Cells were grown in 37° C. environments with 5% CO2. Cells were plated at 20 k cells/well in 96-well clear U-bottom plates and pre-incubated for 24 hours. Addition of serially diluted inhibitor (in medium) was performed followed by 48 hours of additional incubation. Addition of CellTiter-Blue occurred to a final concentration of 0.125 mg/mL. The mixture was allowed to incubate until sufficient color changed occurred. Cell viability was measured as a function of resorfuin intensity using a Tecan M200 Pro spectrophotometer, 560 nm (ex.)/590 nm (em.). […] EC50's were determined using GraphPad Prism's built in “log(inhibitor) vs. normalized response—Variable slope” function.
Hek293 cells were purchased from ATCC. Cells were grown as described above. Cells were plated at 20 k cells/well in 96-well clear U-bottom plates and pre-incubated for 24 hours. […] Cell viability was measured as a function of resorufin intensity using a Tecan M200 Pro spectrophotometer, 560 nm (ex.)/590 nm (em.).
Human PBMCs were graciously donated from Dr. Nathan Dolloff s laboratory. […] Cell viability was measured as a function of resorufin intensity using a Tecan M200 Pro spectrophotometer, 560 nm (ex.)/590 nm (em.).

The subject of another data set is class I HDACs. The experiment in a line: Class I HDAC inhibition (FIG. 7a). Type of data set: biochemical. Here is the method:
All Treatments are at 100 nM inhibitor concentration.

Data set [3] concerns melanoma and renal cancer. The experiment in a line: Cell line efficacy, melanoma and renal cancer growth. Type of data set: cell-based. The settings on record: melanoma and renal cancer cell lines. The source says: Percent growth below zero indicates the treatment has selective lethality to the cancer cells.
The subject of data set [4] is MV4-11 cells. The experiment in a line: Western blot analysis of MV4-11 cells. In kind it is cell-based. Here is the method: MV4-11 cells were cultured as described above. Cells were plated at 500 k cells/mL×3 mLs in clear, flat bottom 6 well plates. Cells were pre-incubated for 24 hours before addition of inhibitor at various concentrations. […] Cell pellets were lysed with RIPA buffer. RIPA buffer is comprised of 50 mM Tris Base, 150 mM NaCl, 5 mM EDTA, 0.1% (v/v) SDS, 0.5% (v/v) Sodium Deoxycholate, and 1% (v/v) Triton-x-100. After lysing, the suspension is ultra-sonicated and centrifuged at 15000 RPM for 15 minute at 4° C. 80 μL of supernatant was mixed with 40 μL of 15:85 (v/v) 3-mercaptoethanol:LDS solution. The mixture was heated at 90° C. for 15 minutes and stored for loading at −20° C. Prior to loading, the solution was flash thawed at 90° C. Lysates were run on Invitrogen NuPAGE 4-12% Bis-Tris 15 well gels at 170V for approximately 60 minutes in MES buffer. Gels were transferred to […] and ran at 30V for 180 minutes. Primary antibodies, purchased from Santa Cruz Biotechnology, were added in 5% (w/v) milk or 5% (w/v) Bovine Serum Albumin fraction V. The antibody was incubated with cellulose overnight at 4° C. before addition of secondary antibody in 5% (w/v) milk or 5% (w/v) Bovine Serum Albumin. Images were read using a GE ImageQuant LAS 4000. Global lighting adjustments of resulting images were made using Adobe Photoshop CC. Quantification was performed using Image Studio Lite 4.0.
(In general: In western blotting, separated proteins are transferred to a membrane and probed.)

Data set [5] concerns MV4-11 cells. The experiment in a line: Pulse treatment of MV4-11 cells, cell death. The settings on record: 2 hr treatment (200 nM), removal of inhibitor, 24 hr incubation. Type of data set: cell-based.
A short description of data set [6]: Stability in artificial gastric and intestinal juice and human serum. The settings on record: over 8 hours. Type of data set: in vitro ADME.
A short description of data set [7]: ESI-LCMS glucuronidation assay. In kind it is in vitro ADME, human. The note with it: 2,2,2-trifluoroacetate. On the procedure:
Mixed gender pooled Human Liver Microsomes (HLMs) were purchased from Xenotech, Lot#H0160. A buffer solution containing 100 mM Tris HCl buffered to a pH of 7.5 at 37° C. was used to dilute HLMs to a concentration of 250 μg/mL. To this solution was added 1 μg/mL (final) of alamethicin and 5 mM MgCl2 (final). This solution was rocked gently at 4° C. for 15 minutes to allow pore formation. 180 μL of this solution was added to 10 μL of 5 mM inhibitor+10 μL of 50 mM UDPGA in H2O or just 10 μL H2O. This solution was gently rocked at 37° C. for 12 hours before being quenched with a 47:50:3 (v/v/v) solution of water, acetonitrile and formic acid. After a 15 minute centrifugation at 15000G in 37° C. conditions, 20 μL of supernatant was directly injected into Thermo LTQ Fleet LCMS.
An Accucore RP-MS HPLC Column, 2.6 […], 30×4.6 mm was used throughout these assays. Water and methanol with 0.1% (v/v) formic acid were used as mobile phase. A gradient of 10% methanol 90% water was run isocratically for 2 minutes at […]. The gradient then changed to 100% methanol over 10 minutes before returning to 10% methanol 90% water over the next three minutes. Capillary temperature was 350° C., with a spray voltage of 5 kV.

The test system of data set [8] is Raw246.7 macrophage cells. Kind of data set: NO production in activated macrophages. Type of data set: cell-based. The settings on record: 100 nM, LPS and LPS+ATP. The source says:
Hypo-acetylation of histone H3 and H4 were also reversed with HDAC inhibitor treatments (yellow dash box). d.

The conditions of data set [9]: reported, cited from earlier work.
The conditions of data set [10]: in human, reported; cited from earlier work.

Molecules are shown by their SMILES. “And” between values parts separate entries of the source, which are not always exact repeats. Identical values can stand only once. “Also recorded” adds a separate entry of the source. Like-named read-outs stand apart in the source and are kept apart here.

Sequence of HDAC1 (Q13547 whole entry): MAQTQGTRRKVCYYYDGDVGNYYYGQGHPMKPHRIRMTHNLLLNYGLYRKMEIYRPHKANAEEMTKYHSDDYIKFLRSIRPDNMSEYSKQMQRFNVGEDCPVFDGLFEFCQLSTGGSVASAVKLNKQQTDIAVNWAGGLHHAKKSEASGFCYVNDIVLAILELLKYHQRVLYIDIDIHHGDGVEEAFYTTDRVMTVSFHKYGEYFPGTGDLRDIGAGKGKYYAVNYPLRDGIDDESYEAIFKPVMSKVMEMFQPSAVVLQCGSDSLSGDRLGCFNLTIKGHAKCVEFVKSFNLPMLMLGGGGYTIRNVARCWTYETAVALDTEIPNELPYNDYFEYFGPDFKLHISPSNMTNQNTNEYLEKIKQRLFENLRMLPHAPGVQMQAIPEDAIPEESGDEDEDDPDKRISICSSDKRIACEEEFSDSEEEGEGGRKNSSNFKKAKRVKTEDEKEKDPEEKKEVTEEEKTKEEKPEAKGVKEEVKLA
Sequence of HDAC2 (Q92769 whole entry): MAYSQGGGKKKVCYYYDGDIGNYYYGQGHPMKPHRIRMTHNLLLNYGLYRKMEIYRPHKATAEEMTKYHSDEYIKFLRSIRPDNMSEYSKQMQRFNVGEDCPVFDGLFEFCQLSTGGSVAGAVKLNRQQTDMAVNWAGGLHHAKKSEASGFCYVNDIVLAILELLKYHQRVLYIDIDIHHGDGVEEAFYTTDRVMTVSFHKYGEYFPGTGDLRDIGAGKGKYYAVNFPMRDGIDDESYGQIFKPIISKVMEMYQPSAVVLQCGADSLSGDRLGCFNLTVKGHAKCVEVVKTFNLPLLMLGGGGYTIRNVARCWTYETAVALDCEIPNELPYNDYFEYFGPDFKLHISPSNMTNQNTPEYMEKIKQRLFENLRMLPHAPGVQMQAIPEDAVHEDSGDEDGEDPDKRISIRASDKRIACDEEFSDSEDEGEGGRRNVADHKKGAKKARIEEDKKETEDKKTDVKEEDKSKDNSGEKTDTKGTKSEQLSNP
Sequence of HDAC3 (O15379 whole entry): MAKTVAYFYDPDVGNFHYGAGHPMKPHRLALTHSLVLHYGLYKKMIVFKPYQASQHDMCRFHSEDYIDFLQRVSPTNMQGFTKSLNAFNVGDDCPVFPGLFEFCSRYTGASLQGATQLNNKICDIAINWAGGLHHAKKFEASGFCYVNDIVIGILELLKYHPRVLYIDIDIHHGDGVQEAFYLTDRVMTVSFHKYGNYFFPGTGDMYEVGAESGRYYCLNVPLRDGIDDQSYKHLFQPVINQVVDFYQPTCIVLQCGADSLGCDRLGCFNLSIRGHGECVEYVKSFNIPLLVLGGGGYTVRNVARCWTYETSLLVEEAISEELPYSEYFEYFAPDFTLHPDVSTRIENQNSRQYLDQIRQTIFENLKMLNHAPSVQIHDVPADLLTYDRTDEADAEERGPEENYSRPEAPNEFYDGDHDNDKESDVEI
Sequence of HDAC3 (Q9Y618 395-489 partner): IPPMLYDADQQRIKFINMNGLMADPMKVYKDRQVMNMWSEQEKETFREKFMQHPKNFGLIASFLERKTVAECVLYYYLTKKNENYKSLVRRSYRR
Method for HDAC3: Recombinant HDACs 1, 2, and 3 (BPS Biosciences) were diluted to a concentration of 1 nM in HDAC buffer. 10 uL of this solution was added in 96-well format to black U-bottom plates. 10 uL of serially diluted inhibitor was added and a 2 hour pre incubation occurred at room temperature. 50 μM (final) of Acetylated Lysine-Aminomethyl coumarin-BOC in HDAC buffer solution was added and a second 2 hour incubation occurred at room temperature. 5 mg/mL trypsin, 1 μM trichostatin A solution in HDAC buffer was added to quench the reaction. […] Data were normalized to control wells containing no inhibitor. IC50's were determined using GraphPad Prism's built in “log(inhibitor) vs. normalized response—Variable slope” function.
Method for HEK293 Lysate: Hek293 cells were purchased from ATCC and cultured in Dulbecco's modified eagle's medium with glutamax and 10% (v/v) FBS. Cells were plated in 75 cm^2 flasks and incubated at 37° C. and 5% CO2 until −80% confluent. Cells were harvested, washed, and pelleted, lysed before protein concentration was determined using a Tecan M200 spectrophotometer in a BCA assay, and finally stored at −80° C. Upon need, lysate was thawed and diluted to 1 mg/mL of protein concentration with HDAC Buffer. […] The solution was buffered to a pH of 8 and addition of 1 mg/mL BSA was added. 10 μL of this diluted lysate solution was added in 96-well format black U-bottom plates. Serially diluted inhibitor solution was added and a 2 hour pre incubation occurred at 37° C. 50 μM (final) of Acetylated Lysine-Aminomethyl coumarin-BOC in HDAC buffer solution was added and a second 2 hour incubation occurred at 37° C. 5 mg/mL trypsin, 1 μM trichostatin A solution in HDAC buffer was added to quench the reaction. […] Data were normalized to control wells containing no inhibitor. IC50's were determined using GraphPad Prism's built in “log(inhibitor) vs. normalized response—Variable slope” function.

For the compound `Nc1ccc2cc3ccccc3cc2c1` [2-aminoanthracene], in [1], the “mutagenicity (mini-Ames)” value was “Ames positive”.

As to `CCCCNNC(=O)c1ccc(CNC(=O)c2ccccc2)cc1` [Compound 1l, N-(4-(2-butylhydrazine-1-carbonyl)benzyl)benzamide], the IC50 is 18.9 ± 2.74 nM at HDAC1 and 65.2 ± 10.4 nM at HDAC2.

Turning to `C/C=C/CNNC(=O)c1ccc(CNC(=O)c2ccccc2)cc1` [Compound 2a, (E)-N-(4-(2-(but-2-en-1-yl)hydrazine-1-carbonyl)benzyl)benzamide], the values for the IC50 on HDAC3 and in the data set on HEK293 Lysate were 1530 ± 228 nM and greater than 10000 nM, respectively. Besides, the HMGB-1 secretion entry in the data set with Raw264.7 was “attenuated”.

Consider `CCCNNC(=O)c1ccc(CNC(=O)c2ccccc2)cc1` [Compound 2d, N-(4-(2-propylhydrazine-1-carbonyl)benzyl)benzamide], for which the IC50 at HDAC1 was determined as 13.2 ± 2.01 nM; at HDAC2 it was 77.6 ± 9.52 nM.

Take `CCCCCNNC(=O)c1ccc(CNC(=O)c2ccccc2)cc1` [Compound 2e, N-(4-(2-pentylhydrazine-1-carbonyl)benzyl)benzamide]: the figures for the IC50 on HDAC1 and at HDAC2 were 20.2 ± 5.04 nM and 43.6 ± 33.2 nM, respectively.

`CCNNC(=O)c1ccc(CNC(=O)/C=C/c2ccccc2)cc1` [Compound 3a, N-(4-(2-ethylhydrazine-1-carbonyl)benzyl)cinnamamide]: the IC50 amounted to 29.5 ± 10.7 nM at HDAC1, 19.7 ± 1.41 nM on HDAC3, 76.6 ± 9.74 nM on HDAC2 and 171 ± 34.2 nM in the data set with HEK293 Lysate.

For the compound `CCCCNNC(=O)c1ccc(CNC(=O)/C=C/c2ccccc2)cc1` [Compound 3c, N-(4-(2-butylhydrazine-1-carbonyl)benzyl)cinnamamide], the concentration for half-maximal inhibition (IC50) on HDAC1 was determined as 60.2 ± 21 nM; at HDAC2, 70 ± 26.4 nM.

Turning to `CCCCCNNC(=O)c1ccc(CNC(=O)/C=C/c2ccccc2)cc1` [Compound 3d, N-(4-(2-pentylhydrazine-1-carbonyl)benzyl)cinnamamide], the half-inhibitory concentration (IC50) amounted to 47.4 ± 16.8 nM at HDAC1, 32.5 ± 1.15 nM at HDAC3, 99.6 ± 17.4 nM on HDAC2 and 691 ± 54.7 nM with HEK293 Lysate.

As for `CCCCCCNNC(=O)c1ccc(CNC(=O)/C=C/c2ccccc2)cc1` [Compound 3e, N-(4-(2-hexylhydrazine-1-carbonyl)benzyl)cinnamamide], the IC50 was determined as 81.4 ± 12 nM at HDAC1, 150 ± 81.6 nM on HDAC3, 139 ± 29.9 nM at HDAC2 and 1720 ± 139 nM in the data set on HEK293 Lysate.

`CCCNNC(=O)/C=C/c1ccc(CNCCc2c(C)[nH]c3ccccc23)cc1` [LP-97, (E)-2-(2-methyl-1H-indol-3-yl)-N-(4-(3-oxo-3-(2-propylhydrazinyl)prop-1-en-1-yl)benzyl)ethan-1-aminium 2,2,2-trifluoroacetate]: the “Cmax relative to panobinostat” value in data set [2] (20 mg/Kg I.P.) is reported as “about 5 times”. For the same compound, the t1/2 in data set [2] (in vivo, 20 mg/kg, plasma) came out at 6.07 h. Also, the half-life in data set [2] (mouse, intraperitoneal, in vivo, 20 mg/kg, plasma) is 6.07 h. For the same compound, the Cmax in [2] (mouse, plasma, ip, 20 mg/kg I.P.) was 559 ng/mL and 1.5 µM. Also, the “toxicity against wt-p53 versus p53-null and mutants” value in the data set with AML cell lines (n=3) is given as “selective toxicity”. Also, in the data set with AML cell lines (wild-type p53 leukemia cell lines), the “effective concentration against multiple AML cell lines” value is on record as less than 100 nM. Further, the “HDAC inhibitor potency, class I HDACs” value in the data set with class I HDACs is “low-nanoM to picoM”. For the same compound, in [3], the growth inhibition concentration result was “below 100 nM” and the “total growth inhibition concentration” value turned out to be 1 µM. Moreover, in the data set on MV4-11 cells [4] (2 hr treatment (200 nM), removal of inhibitor, 24 hr incubation), the “p53 level after pulse treatment” value is “significant reduction”. Also, the “effect on oncogenic proteins FLT3 and STAT5” value in the data set with MV4-11 cells [4] (AML FLT3-ITD mutant cell line MV4-11) was “degradation”. In addition, the “cell death after pulse treatment” value in the data set with MV4-11 cells [5] is “significant AML cell death”. Besides, in data set [6], the “degradation in artificial gastric and intestinal juice and human serum” value is “no appreciable degradation”. In addition, the “glucuronidation by human liver microsomes” value in [7] is “resistance to glucuronidation; also recorded: resistant to glucuronidation”. For the same compound, in [8], the “NO production, acute treatment” value is listed as “only inhibited LPS induced NO production but not ATP driven ones”.

In the case of `CCCCc1nc2cc(/C=C/C(=O)NO)ccc2n1CCN(CC)CC` [Pracinostat], in [9], the AUCinf is on record as 1,841 ng·h/mL, the Cmax is on record as 2,632 ng/mL and the t1/2 was 2.4 h.

For the compound `Cc1[nH]c2ccccc2c1CCNCc1ccc(/C=C/C(=O)NO)cc1` [panobinostat], the t1/2 is 2.9 h in data set [9] (in rodent) and 16 h in data set [10]. In data set [9], the Cmax is 116 ng/mL. Also, the “mutagenicity (mini-Ames)” value in data set [1] is on record as “Ames positive”. The “increase in Hsp70 level” value in the data set on MV4-11 cells [4] is given as “observed”.

With `O=C(CCCCCCC(=O)Nc1ccccc1)NO` [vorinostat, suberanilohydroxamic acid, reference compound], in [9], the t1/2 is 0.2 h. In addition, the HMGB-1 secretion entry in the data set with Raw264.7 is listed as “attenuated”. Further, the “increase in Hsp70 level” value with MV4-11 cells [4] is “observed”. In addition, the “NO production, acute treatment” value in data set [8] is on record as “only inhibited LPS induced NO production but not ATP driven ones”.

A word on the IC50: it is the point on the concentration scale where inhibition reaches its midpoint. The term half-life denotes how long it takes for the measured level to halve. The low end stands for fast loss, the high end for slow loss. One may read the Cmax as the peak of the concentration-time curve.
